According to the supplement of paper PMC10307832:

Legend:
Assay in all cases: relative viability (nuclei count vs DMSO), 5 days (fraction); higher = more cells survive
[1] = compound: Cc1ccc2nc(NCCN)c3ncc(C)n3c2c1 + C[C@@H](Oc1cc(-c2cnn(C3CCNCC3)c2)cnc1N)c1c(Cl)ccc(F)c1Cl [Crizotinib] (partner 1 µM)
In short: (§1)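 Relative viability equals treated-well nuclei counts divided by vehicle-well nuclei counts. Counts came from 4× images of lung cancer cell lines grown in 1536-well plates for 5 days after pin-tool dosing on the day after seeding. Dosing used one drug alone or a fixed anchor-drug dose plus five library-drug doses (not always all listed) in √10 steps, and values are medians of duplicate plates.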

[2] = compound: Cc1ccc2nc(NCCN)c3ncc(C)n3c2c1 + COc1cccc2cc(-c3nc([C@H]4CC[C@H](C(=O)O)CC4)n4ncnc(N)c34)[nH]c12 [OSI-027] (partner 0.5 µM)
In short: as §1

[3] = compound: O=C(/C=C/c1ccccc1)NC(NC(=S)Nc1cccc2cccnc12)C(Cl)(Cl)Cl [Salubrinal] + Nc1nc2[nH]cc(CCc3ccc(C(=O)N[C@@H](CCC(=O)O)C(=O)O)cc3)c2c(=O)[nH]1 [Pemetrexed] (partner 0.2 µM)
In short: as §1

[4] = compound: O=C(/C=C/c1ccccc1)NC(NC(=S)Nc1cccc2cccnc12)C(Cl)(Cl)Cl [Salubrinal] + N=C(N)NC(=N)NCCc1ccccc1 [Phenformin] (partner 250 µM)
In short: as §1

UMC-11
relative viability ([1]; first compound 0.04 µM): 0.7
relative viability ([1]; first compound 0.1265 µM): 0.57
relative viability ([1]; first compound 0.4 µM): 0.6
relative viability ([1]; first compound 1.265 µM): 0.646
relative viability ([1]; first compound 4 µM): 0.481
relative viability ([2]; first compound 0.04 µM): 0.51
relative viability ([2]; first compound 0.1265 µM): 0.471
relative viability ([2]; first compound 0.4 µM): 0.481
relative viability ([2]; first compound 1.265 µM): 0.416
relative viability ([2]; first compound 4 µM): 0.47
relative viability ([3]; first compound 0.08 µM): 0.766
relative viability ([3]; first compound 0.253 µM): 0.675
relative viability ([3]; first compound 0.8 µM): 0.968
relative viability ([3]; first compound 2.53 µM): 0.729
relative viability ([3]; first compound 8 µM): 0.726
relative viability ([4]; first compound 0.08 µM): 0.354
relative viability ([4]; first compound 0.253 µM): 0.354
relative viability ([4]; first compound 0.8 µM): 0.335
relative viability ([4]; first compound 2.53 µM): 0.332
relative viability ([4]; first compound 8 µM): 0.299
